Laboratory results as given in PubChem BioAssay AID1963847 (Molecular Pharmacology Branch, DTP, NCI, 2024).

Tested on: 415267-285-R-J2-PDC complex spheroid viability
Assay: Anticancer human tumor 415267-285-R-J2-PDC patient-derived breast carcinoma cell line growth inhibition [POLQ]
Details: for IC50: curve of first compound; for viability, T/C: stronger effect = lower value
Protocol: Multicellular complex tumor spheroid response to Polymerase (POL) inhibitors (novobiocin, ART-558, RP6685) in combination with a variety of drugs and investigational agents in selected tumor cell lines
The POL inhibitors (novobiocin, ART-558, and RP6685) were evaluated both individually and in combination with standard of care and investigational anticancer small molecules within a complex spheroid model of solid tumors. . Complex spheroids include a stromal component modeled by human endothelial cells (HUVEC) and fibroblasts modeled by human mesenchymal stem cells (MSCs). The concentration ranges selected for each drug and investigational agent were based upon clinically achievable concentrations if the clinical Cmax of the agent was known.
Compounds. The drugs and investigational agents: novobiocin (NSC847541), ART-558 (NSC835418), RP-6685 (NSC848927), peposertib (NSC802822), ceralasertib (NSC780249), elimusertib (NSC800525), camonsertib (NSC841442), AZD-1390 (NSC803789), olaparib (NSC753686), talazoparib (NSC767125), rucaparib (NSC756644), sotorasib (NSC818433), MRTX-1133 (NSC836407), SN-38 (NSC673596), topotecan (NSC609699), epotoside (NSC141540), doxorubicin (NSC123127), gemcitabine (NSC613327), 5-fluorouracil (NSC19893), paclitaxel (NSC125973), vemurafenib (NSC761431), MSA-2 (NSC828583), SN-011 (NSC837082), adavosertib (NSC754352), prexasertib (NSC758257), carboplatin (NSC241240) and oxaliplatin (NSC266046), were obtained from the National Cancer Institute (NCI) Developmental Therapeutics Program Chemical Repository (21). The FDA-approved anticancer drug set is available from the Developmental Therapeutics Program at https://dtp.cancer.gov/organization/dscb/obtaining/. […] The stock solutions were prepared in dimethyl sulfoxide (DMSO, Sigma-Aldrich, St. Louis, MO, cat. D2650), except for the platinum compounds which were prepared in saline (Quality Biological, Gaithersburg, MD, cat. 114-055-101), at 800-fold the tested concentration and stored at -70 degrees C prior to their use. All drugs and investigational agents were tested over a range starting from a high concentration at or near the clinical Cmax and decreasing in half-log increments. If the clinical Cmax for an agent had not been determined, the highest concentration tested was 10 microM, except for SN-38, which was tested at a high concentration of 1 microM.
Cell Culture. All cells were maintained in an incubator at 37 degrees C and 5% CO2 with 95% humidity. The PDC lines were cultured according to standard operating procedures established by the NCI PDMR (https://pdmr.cancer.gov). Table 3 of the manuscript, lists the cell lines along with the number of the three cell types plated to form the mct-spheroids and media for tumor cell growth. After thawing, all PDC lines, except 997537-175-T-J1-PDC and 415267-285-R-J2-PDC, were cultured in Matrigel-coated flasks prepared with a working solution of 1X Ham's F-12 nutrient mix, without supplementation (Thermo Fisher Scientific, cat. 11765054), 100 U/mL penicillin-streptomycin (Thermo Fisher Scientific, cat. 15140122), and 2.5% Matrigel (Corning Inc., Corning, NY, cat. 354248) for the first three passages. The two PDC lines 997537-175-T-J1-PDC and 415267-285-R-J2-PDC were cultured on uncoated flasks. The 857933-349-R-J2-PDC line was cultured in 6C/Colon 1B media containing advanced DMEM/F-12 (Thermo Fisher Scientific, cat. 12634028), 10 mM HEPES (Thermo Fisher Scientific, cat. 15630080), 1X GlutaMAX supplement (Thermo Fisher Scientific, cat. 35050061), 0.1 mg/mL primocin (InvivoGen, San Diego, CA, cat. ant-pm-2), 10% defined fetal bovine serum, heat inactivated (HyClone Laboratories Inc., Logan, UT, cat. SH30070.03HI), 50% L-WRN conditioned media (ATCC, cat. CRL-3276), 1.25 mM N-Acetyl-L-cysteine (Sigma-Aldrich, cat. A9165), 10 mM nicotinamide (Sigma-Aldrich, cat. N0636), 1X B-27 supplement (Thermo Fisher Scientific, cat. 17504044), 1X N-2 supplement (Thermo Fisher Scientific, cat. […]

[1] = second compound 0.0316 µM, first compound 0.0316 µM
[2] = second compound 0.0316 µM, first compound 0.1 µM
[3] = second compound 0.0316 µM, first compound 0.316 µM
[4] = second compound 0.0316 µM, first compound 1 µM
[5] = second compound 0.0316 µM, first compound 3.16 µM
[6] = second compound 0.0316 µM, first compound 10 µM
[7] = second compound 0.1 µM, first compound 0.0316 µM
[8] = second compound 0.1 µM, first compound 0.1 µM
[9] = second compound 0.1 µM, first compound 0.316 µM
[10] = second compound 0.1 µM, first compound 1 µM
[11] = second compound 0.1 µM, first compound 3.16 µM
[12] = second compound 0.1 µM, first compound 10 µM
[13] = second compound 0.316 µM, first compound 0.0316 µM
[14] = second compound 0.316 µM, first compound 0.1 µM
[15] = second compound 0.316 µM, first compound 0.316 µM
[16] = second compound 0.316 µM, first compound 1 µM
[17] = second compound 0.316 µM, first compound 3.16 µM
[18] = second compound 0.316 µM, first compound 10 µM
[19] = second compound 1 µM, first compound 0.0316 µM
[20] = second compound 1 µM, first compound 0.1 µM
[21] = second compound 1 µM, first compound 0.316 µM
[22] = second compound 1 µM, first compound 1 µM
[23] = second compound 1 µM, first compound 3.16 µM
[24] = second compound 1 µM, first compound 10 µM
[25] = second compound 3.16 µM, first compound 0.0316 µM
[26] = second compound 3.16 µM, first compound 0.1 µM
[27] = second compound 3.16 µM, first compound 0.316 µM
[28] = second compound 3.16 µM, first compound 1 µM
[29] = second compound 3.16 µM, first compound 3.16 µM
[30] = second compound 3.16 µM, first compound 10 µM
[31] = second compound 10 µM, first compound 0.0316 µM
[32] = second compound 10 µM, first compound 0.1 µM
[33] = second compound 10 µM, first compound 0.316 µM
[34] = second compound 10 µM, first compound 1 µM
[35] = second compound 10 µM, first compound 3.16 µM
[36] = second compound 10 µM, first compound 10 µM
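Note: spheroids exposed to compounds for one week before readout.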
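Throughout, for viability, T/C: luminescence used as stand-in measure of viable cells; 100% = DMSO vehicle control viability.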

Molecule CCc1cc2c(N3CCc4c(cc(Cn5ccnc5)cc4-c4cn(C)nc4C(F)(F)F)C3=O)ccnc2c(OC)n1 + COC1C(OC(N)=O)C(O)C(Oc2ccc3c(O)c(NC(=O)c4ccc(O)c(CC=C(C)C)c4)c(=O)oc3c2C)OC1(C)C has an IC50 (second compound 0.0316 µM) greater than 10000 nM, an IC50 (second compound 0.1 µM) greater than 10000 nM and an IC50 (second compound 0.316 µM) greater than 10000 nM. The IC50 (second compound 1 µM) was greater than 10000 nM, the IC50 (second compound 3.16 µM) was greater than 10000 nM and the IC50 (second compound 10 µM) was greater than 10000 nM. For the same molecule, the viability, T/C [1] was 92.8%, the viability, T/C [2] was 74.9% and the viability, T/C [3] was 88%. It also gave a viability, T/C [4] of 91.1%, a viability, T/C [5] of 83% and a viability, T/C [6] of 66.3%. For the same molecule, the viability, T/C [7] was 89.4%, the viability, T/C [8] was 87% and the viability, T/C [9] was 83.2%. For the same molecule, the viability, T/C [10] was 83.3%, the viability, T/C [11] was 77.6% and the viability, T/C [12] was 67.6%. For the same molecule, the viability, T/C [13] was 89.8%, the viability, T/C [14] was 90.9% and the viability, T/C [15] was 71.5%. For the same molecule, the viability, T/C [16] was 81%, the viability, T/C [17] was 75.3% and the viability, T/C [18] was 71.8%. The viability, T/C [19] was 88.6%, the viability, T/C [20] was 89.6% and the viability, T/C [21] was 79.5%. The viability, T/C [22] was 74.9%, the viability, T/C [23] was 79.5% and the viability, T/C [24] was 63.2%. The viability, T/C [25] was 97.4%, the viability, T/C [26] was 83.8% and the viability, T/C [27] was 78.8%. The viability, T/C [28] was 84.5%, the viability, T/C [29] was 73.5% and the viability, T/C [30] was 70.5%. The viability, T/C [31] was 99.2%, the viability, T/C [32] was 89.8% and the viability, T/C [33] was 84.9%. The viability, T/C [34] was 77.5%, the viability, T/C [35] was 73.6% and the viability, T/C [36] was 72.2%.
With COc1cc(C2c3cc4c(cc3C(OC3OC5COC(C)OC5C(O)C3O)C3COC(=O)C23)OCO4)cc(OC)c1O (centres undefined) + COC1C(OC(N)=O)C(O)C(Oc2ccc3c(O)c(NC(=O)c4ccc(O)c(CC=C(C)C)c4)c(=O)oc3c2C)OC1(C)C the IC50 (second compound 0.0316 µM) was 155 nM, the IC50 (second compound 0.1 µM) was 156 nM and the IC50 (second compound 0.316 µM) was 149 nM. The IC50 (second compound 1 µM) was 153 nM, the IC50 (second compound 3.16 µM) was 166 nM and the IC50 (second compound 10 µM) was 163 nM. It also gave a viability, T/C [1] of 88.3%, a viability, T/C [2] of 72.4% and a viability, T/C [3] of 13.8%. For the same molecule, the viability, T/C [4] was 8.42%, the viability, T/C [5] was 5.21% and the viability, T/C [6] was 6.94%. For the same molecule, the viability, T/C [7] was 97.4%, the viability, T/C [8] was 72.1% and the viability, T/C [9] was 14.5%. For the same molecule, the viability, T/C [10] was 8.54%, the viability, T/C [11] was 5.95% and the viability, T/C [12] was 5.76%. For the same molecule, the viability, T/C [13] was 97.7%, the viability, T/C [14] was 69.6% and the viability, T/C [15] was 12.8%. The viability, T/C [16] was 8.42%, the viability, T/C [17] was 5.87% and the viability, T/C [18] was 6.37%. For the same molecule, the viability, T/C [19] was 98.3%, the viability, T/C [20] was 71.6% and the viability, T/C [21] was 13.1%. It also gave a viability, T/C [22] of 7.07%, a viability, T/C [23] of 6.69% and a viability, T/C [24] of 5.99%. It also gave a viability, T/C [25] of 87.1%, a viability, T/C [26] of 75.9% and a viability, T/C [27] of 17%. For the same molecule, the viability, T/C [28] was 8.05%, the viability, T/C [29] was 5.46% and the viability, T/C [30] was 6.77%. The viability, T/C [31] was 101%, the viability, T/C [32] was 75.6% and the viability, T/C [33] was 15.3%. For the same molecule, the viability, T/C [34] was 8.14%, the viability, T/C [35] was 6.45% and the viability, T/C [36] was 5.77%.
